Measurements taken from BindingDB's records for patent US11001595 (Duquesne University of The Holy Spirit, 2021).

Biological target: T1, Dihydrofolate reductase (Pneumocystis jirovecii (strain RU7), UniProt A0A0W4ZHR8)
T1 sequence (A0A0W4ZHR8 whole entry): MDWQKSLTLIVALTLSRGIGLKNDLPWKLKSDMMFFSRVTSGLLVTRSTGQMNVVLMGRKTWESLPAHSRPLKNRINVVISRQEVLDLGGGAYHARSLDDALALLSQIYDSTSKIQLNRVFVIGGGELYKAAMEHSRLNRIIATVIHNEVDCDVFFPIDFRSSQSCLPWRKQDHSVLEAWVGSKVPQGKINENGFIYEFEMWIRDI
Experiment: Not found
Excerpt: Not found

COc1ccccc1Sc1sc2nc(N)nc(N)c2c1C [US11001595, Compound 2]
IC50: 0.177 µM

COc1ccc(Sc2sc3nc(N)nc(N)c3c2C)cc1 [US11001595, Compound 4]
IC50: 0.252 µM
